The values that follow come from patent US20240287130A1, “COMPOUND FOR ALCOHOLIC LIVER INJURY, PREPARATION METHOD, COMPOSITION, FOOD AND USE” (CHENGDU INNOHEPOREM BIOTECH CO., LTD., priority 2021, published 2024).

Data set [1] deals with mouse alcoholic liver injury model. Kind of data set: Effect of product (a) on alcoholic liver injury (Example 6): six months alcohol feeding, then one month of intervention in normal liquid feed. Type of data set: in vivo, C57 mice. As to conditions: one month intervention after six months alcohol; for proportion of fat deposition in the total liver area (oil red O staining): non-intervention group 0.68, FIG. 16; for ALT level in serum: normal diet group 12.03, non-intervention group 44.84, FIG. 14. The text has this: (§1) This experiment used the Lieber-DeCarli alcoholic fatty liver modeling method. Lieber-DeCarli feed was purchased from Nantong Trophic Animal Feed High-Tech Co., Ltd. The specific method is as follows: C57 mice (purchased from TROPHIC Animal Feed High-Tech Co. Ltd, China, the same below) were fed with normal solid maintenance feed, adapted to the feeding environment for at least one week, then were fed with maltodextrin diet for a week of transition, and then fed with Lieber-DeCarli feed. The alcohol concentration of Lieber-DeCarli feed was 3% in the first week, and the alcohol concentration was increased by 0.5% every week until reaching an alcohol concentration of 5%. The animals were continued to be fed with feed containing 5% alcohol. C57 mice were fed with Lieber-DeCarli feed for 12 weeks to establish a model of alcoholic liver injury.
30 C57 mice were subjected to adaptive feeding for 1 week, and then randomly divided into a normal diet group (n=6) and an alcohol diet group (n=24) according to body weight. In the alcohol diet group, a mouse alcoholic liver injury model was established by feeding mice with Lieber-DeCarli feed for 24 weeks according to the method of Example 3. After the modeling was completed, the mice were randomly divided into 4 groups, namely the non-intervention group (EtOH(6m)+Normal(1m), n=6), the zinc glutathione intervention group (EtOH(6m)+Zn(GSH)2(1m), n=6), the zinc intervention group (EtOH(6m)+Zn(1m), n=6), and the glutathione intervention group (EtOH(6m)+GSH(1m), n=6). The remaining normal diet group was named the normal group (Normal (7m) group, n=5).
Different intervention substances were added to the normal liquid feed for 1 month. The feed of the zinc glutathione intervention group was added with Zn(GSH)2SO4 at an amount of 1 mg Zn per 10 mL of feed (GSH was 9.35 mg/10 mL) for one month of intervention. The feed of the zinc intervention group was added with ZnSO4 at an amount of 1 mg Zn per 10 mL of feed. The feed of the glutathione intervention group was added with glutathione at an amount of 9.35 mg GSH per 10 mL of feed.
(§2) At the end of the experiment in each group, the animals were weighed, blood was collected, and materials were collected.
(§3) Blood collection: orbital blood collection was performed.
Liver: The animals were killed by cervical dislocation. The mice were cut along the midline of the abdomen to expose the abdomen and the liver was then peeled off. The intact liver was peeled off and separated into the different lobes.
Tissue distribution of each lobe of the liver: The left lobe was separated into three sections and the right lobe was separated into two sections. The first sections of the left lobe and right lobe were used to make pathological sections for histological examination. The second sections of the left lobe and right lobe were used for zinc measurement. The remaining third section of the left lobe was stored in liquid nitrogen for analysis such as molecular detection.
Biochemical analysis of serum: Alanine aminotransferase (ALT) in blood samples was analyzed using a colorimetric method.
Oil red O staining of frozen sections: Frozen sections were stained with ORO stain solution and the nuclei were counterstained with hematoxylin. […] The area of the ORO positive area was measured using Image Pro-Plus 6.0 software, and the ratio of the positive area to the total area was calculated.
(§4) Data processing and statistical analysis: All experimental data herein were analyzed using GraphPad Prime 6 statistical analysis software. Student t test was used for single factor analysis between two groups, and p<0.05 was considered to be statistically different.
Determination method: After blood was collected, the collected whole blood was placed at 25° C. for 30 minutes. After the blood coagulated, it was centrifuged at 3500 rpm for 15 minutes to separate the serum, and various parameters were measured timely. […]

Data set [2] shares this test system. The data set can be described thus: Effect of product (a) on alcoholic liver injury (Example 4): Lieber-DeCarli alcohol diet, three months of intervention. In kind it is in vivo, C57 mice.
Text: as §1
30 C57 mice were subjected to adaptive feeding for 1 week, and then randomly divided into a normal diet group (n=9) and an alcohol diet group (n=21) according to body weight. In the alcohol diet group, a mouse alcoholic liver injury model was established by feeding mice with Lieber-DeCarli feed for 12 weeks according to the method of Example 3. After the modeling was completed, the mice were randomly divided into 3 groups, one of which was the pre-intervention group (EtOH (3m), n=3) (meanwhile, 4 animals were randomly selected from the normal diet group to be control of the pre-intervention group (Normal (3m) group, n=4). The pre-intervention group and the pre-intervention control group were collected immediately after the modeling was completed. The other two groups were the non-intervention group (EtOH (6m), n=10), and the zinc/glutathione intervention group (EtOH(6m)/Zn(GSH)2(3m), n=8) respectively. The remaining normal diet group was named the normal group (Normal (6m) group, n=5).
Zn(GSH)2·SO4 was added to the daily Lieber-DeCarli alcohol diet at the amount of 1 mg Zn/10 mL of feed for three months of invention.
as §2, §3
Liver: The animals were killed by cervical dislocation. The mice were cut along the midline of the abdomen to expose the abdomen and the liver was then peeled off. The intact liver was peeled off and separated into the different lobes. The left lobe was separated into three sections using a blade, and the right lobe was separated into two sections.
Tissue distribution of each lobe of the liver: The left lobe was separated into three sections and the right lobe was separated into two sections. The first sections of the left lobe and right lobe were used to make pathological sections for histological examination. The second sections of the left lobe and right lobe were used for zinc measurement. Other lobes were stored in liquid nitrogen for analysis such as molecular detection. […]
Measurement of zinc concentration: The zinc concentration in liver tissue was determined using atomic absorption spectrometry (atomic absorption spectrometer: ICE3500, Thermo Company).
as §4

[3] abbreviates: EtOH(6 m)/Zn(GSH)2 group, end of experiment.

For the compound `N[C@@H](CCC(=O)N[C@@H](CS)C(=O)NCC(=O)O)C(=O)O` [glutathione, N-(N-L-γ-glutamyl-L-cysteinyl)-glycine], in data set [1], the “ALT level relative to the zinc glutathione intervention group” value is listed as “about 2 times”, the “proportion of fat deposition in the total liver area (oil red O staining)” value (“proportion of fat deposition” below) turned out to be 0.62 and the “ALT level in serum” value worked out at 22.86.

Turning to `O=S(=O)([O-])[O-].[Zn+2]` [zinc, ZnSO4], in data set [1], the “ALT level relative to the zinc glutathione intervention group” value was “about 2 times”, the “proportion of fat deposition” value is 0.36 and the “ALT level in serum” value was 22.03.

As to [Zn^2+(L-GSH)2]·SO4^2− [Zn(GSH)2·SO4], in data set [2] (EtOH(6m)/Zn(GSH)2(3m) vs non-intervention group, FIG. 9), the “fat deposition (oil red O staining of liver)” value was “significantly improved”. Besides, in data set [2] (setting [3]), the Liver weight worked out at 1.26 ± 0.25 g and the “Liver weight/final body weight” value is reported as 5.62 ± 0.80%. For the same compound, in data set [2] (EtOH(6 m)/Zn(GSH)2 group, end of experiment, average), the Final body weight amounted to 22.53 ± 1.67 g. In addition, the survival rate entry in data set [2] (alcohol-fed mice, intervention after modeling, 1 mg Zn/10 mL feed, FIG. 8) is on record as “significantly increased”. The “zinc content in the liver” value in data set [2] (atomic absorption spectrometry, intervention group, FIG. 12) is given as “significantly increased”. The “area of fat deposition (percentage of fat deposition in the total liver area)” value in data set [2] (oil red O staining, vs non-intervention group, FIG. 10) is reported as “significantly reduced”. In addition, the “vesicular steatosis (HE staining)” value in data set [2] (vs non-intervention group, FIG. 11) is on record as “significantly reduced”. Besides, in data set [1], the “proportion of fat deposition” value is listed as 0.21 and the “ALT level in serum” value is on record as 8.96.
